In publication PMC9369712 (2022):

Legend:
[1] = system: TP3-T6 (DNA, G4) TGGGGTCCGAGGCGGGGCTTGGG; experiment: CD melting; details: 70 mM KCl; 20 mM phosphate pH 7.1; 2 µM DNA, DNA:ligand 1:3
[2] = system: TP3-T6 (DNA, G4) TGGGGTCCGAGGCGGGGCTTGGG; experiment: 1H NMR titration (imino protons); details: 70 mM KCl, 20 mM KH2PO4, pH 7.0, 25 °C, 90% H2O
[3] = system: TP3-T6 (DNA, G4) TGGGGTCCGAGGCGGGGCTTGGG; experiment: CD melting at 265 nm; details: 70 mM KCl; 20 mM phosphate pH 7.1; 2 µM DNA, 6 µM ligand; no stabilization

Row | binding ([2]; 3'-end tetrad) | Compound | other results
1 | yes | Cc1cnc(CNC(=O)c2c(=O)c3ccc(N4CCCN(C)CC4)nc3n3c2sc2ccccc23)cn1 | –
2 | yes | CN(C)CCNC(=O)c1cccn2c(=O)c3sc4ccccc4c3nc12 | binding [3]: yes

The remaining lines, values behind:

Row | Compound | binding ([2]; 3'-end tetrad) | other results
3 | NCCOc1cc(C(=O)Nc2cc(OCCN)c3ccccc3n2)nc(C(=O)Nc2cc(OCCN)c3ccccc3n2)c1 | – | ΔTm [1]: > 30 °C
4 | CN(C)CCNC(=O)c1cccn2c(=O)c3cc4ccccc4cc3nc12 | yes | –
5 | Cc1cc2c3c([n+](C)c4ccc(F)cc4c3c1)-c1cc(F)ccc1N2C | – | binding ([2]; 5'-terminal tetrad signals broadened): yes
